Measurements published in patent publication US20210346329A1, “TCA CYCLE INTERMEDIATES AND METHODS OF USE THEREOF” (IMBRIA PHARMACEUTICALS, INC., priority 2018, published 2021).
Where “and” joins values, the source holds several entries; their conditions need not be identical. Equal values may be shown once. Read-outs that look alike come from different tables or passages of the source. Values belong to the compound of their own block, whether it stands above or below them.

How the values were obtained:
[1] = Plasma concentrations of radioactive material; type: in vivo, CD® rats; conditions: IV 10 mg/kg
Procedure: (§1) The plasma-time course, routes and rates of excretion, and tissue distribution of radioactivity following a single oral dose of ^14C-labeled citrate or single oral dose of ^14C-labeled succinate were analyzed in rats.
(§2) Formulations were prepared on the day prior to dosing.
(§3) CD® rats were obtained from Charles River Laboratories. Animals were 9-11 weeks in age at beginning of study.
(§4) Animals given intravenous ^14C-succinate were not kept in a fasting state. ^14C-succinate was administered by tail vein injection.
Blood and plasma were collected by cardiac puncture for terminal collection at 0.5, 1, 2, 4, 8, and 24 hours post-dose. Blood was stored on an ice block or wet ice until centrifugation to obtain plasma. Triplicate aliquots were weighed, mixed with scintillation cocktail, and counted by LSC.
(§5) Samples were analyzed for radioactivity by liquid scintillation counting (LSC) for at least 5 minutes or 100,000 cumulative counts. Samples were analyzed in triplicate.

[2] = Percentage recovery of radioactive dose (expired CO2, urine, feces, cage rinse and wipe); conditions: IV 10 mg/kg, Subject 1006
Procedure: as §1, §2, §3, §4
Following oral dosing, the tube and dose site were wiped with gauze, which was collected for subsequent radioanalysis. Following IV dosing, the needle and dose site were wiped with gauze, which was collected for subsequent radioanalysis. The dose site wipe total radioactivity was subtracted from the total dose administered, to determine dose loss, according to SOP ADME.
Urine and feces were collected at 0-24 hours post-dose and stored on wet ice. Expired CO2 was collected at 0-8 hours and 8-24 hours post-dose by drawing air through traps containing 2 N NaOH according to MPI Research SOP. Samples were stored at ambient temperature and weighed. Aliquots were submitted for radioanalysis.
At 24 hours post-dose, cages were rinsed with a 1% trisodium phosphate (TSP) solution and wiped with gauze pads. The final cage rinse samples and cage wipe samples were collected into separate appropriate containers, and the weight of each cage rinse and cage wipe were recorded.
as §5

[3] = for Bioavailability: Oral 50 mg/kg vs IV 10 mg/kg
Procedure: Blood samples were collected up to 8 hours post-dose, and plasma concentrations of the test articles were determined by LC-MS/MS. Pharmacokinetic parameters were determined using Phoenix WinNonlin (v8.0) software.
Plasma samples were extracted and analyzed using the methods described in the section on Sample Extraction. All data are expressed as ng/mL of the free base. Samples that were below the limit of quantification were not used in the calculation of averages.
Pharmacokinetic parameters were determined with Phoenix WinNonlin (v8.0) software using a non-compartmental model. The maximum plasma concentrations (C0) after IV dosing were estimated by extrapolation of the first two time points back to t=0. The maximum plasma concentration (Cmax) and the time to reach maximum plasma concentration (Tmax) after PO dosing were observed from the data. The area under the time concentration curve (AUC) was calculated using the linear trapezoidal rule with calculation to the last quantifiable data point, and with extrapolation to infinity if applicable. […] Mean residence time, MRT, was calculated by dividing the area under the moment curve (AUMC) by the AUC. Clearance (CL) was calculated from dose/AUC. Steady-state volume of distribution (Vss) was calculated from CL*MRT (mean residence time). Bioavailability was determined by dividing the individual dose-normalized PO AUClast values by the average dose-normalized IV AUClast value. Any samples below the limit of quantitation (1 ng/mL) were treated as zero for pharmacokinetic data analysis.
Standards were prepared in Sprague-Dawley rat plasma containing sodium heparin as the anticoagulant. Working solutions were prepared in 50:50 acetonitrile:water and then added to the rat plasma to make calibration standards to final concentrations of 2000, 1000, 500, 100, 50.0, 10.0, 5.00, 2.50, and 1.00 ng/mL. Standards were treated identically to the study samples.
Plasma samples were manually extracted using acetonitrile in a 96-well plate as outlined in Table 15.

[4] = IV 10 mg/kg, extrapolated to t = 0, mean
[5] = IV 10 mg/kg, individual Rat 598, 599, 600, 10 mg/kg
[6] = Oral 50 mg/kg, individual Rat 601, 602, 603, 50 mg/kg

Plasma concentration of radioactive material ([1]; 30 min, Subject 1001): 2809 ng-equivalents/g | Plasma concentration of radioactive material ([1]; 1 hr, Subject 1002): 2996 ng-equivalents/g | Plasma concentration of radioactive material ([1]; 2 hr, Subject 1003): 1466 ng-equivalents/g | Plasma concentration of radioactive material ([1]; 4 hr, Subject 1004): 1158 ng-equivalents/g | Plasma concentration of radioactive material ([1]; 8 hr, Subject 1005): 813 ng-equivalents/g | Plasma concentration of radioactive material ([1]; 24 hr, Subject 1006): 511 ng-equivalents/g | Percentage recovery of radioactive dose ([2]; Cage rinse, 0-24 hr): 0.1 % recovery | Percentage recovery of radioactive dose ([2]; Cage wipe, 24 hr): 0.0 % recovery | Percentage recovery of radioactive dose ([2]; Expired trap 1, 0-8 hr (line r8)): 54.8 % recovery | Percentage recovery of radioactive dose ([2]; Expired trap 1, 0-8 hr (line r9)): 4.6 % recovery | Percentage recovery of radioactive dose ([2]; Expired trap 1, 0-8 hr (line r10)): 0.4 % recovery | Percentage recovery of radioactive dose ([2]; Expired trap 1, 0-8 hr (line r12)): 1.3 % recovery | Percentage recovery of radioactive dose ([2]; Expired trap 1, 0-8 hr (line r13)): 0.7 % recovery | Percentage recovery of radioactive dose ([2]; Expired trap 1, 0-8 hr (line r14)): 0.3 % recovery | Percentage recovery of radioactive dose ([2]; Feces, 0-24 hr): 0.2 % recovery | Percentage recovery of radioactive dose ([2]; Subtotal of expired traps (line r11)): 59.8 % recovery | Percentage recovery of radioactive dose ([2]; Subtotal of expired traps (line r15)): 2.3 % recovery | Percentage recovery of radioactive dose ([2]; Total): 65.265 % recovery | Percentage recovery of radioactive dose ([2]; Urine, 0-24 hr): 2.9 % recovery
Structure (SMILES): O=C(O)CCC(=O)O [^14C-succinate]

Plasma concentration ([3]; IV 10 mg/kg, 0.083 hr, individual Rat 598, 599, 600, 10 mg/kg): 8050 ng/mL and 6880 ng/mL and 8410 ng/mL | Plasma concentration ([3]; IV 10 mg/kg, 0.083 hr, mean): 7780 ng/mL | Plasma concentration ([3]; IV 10 mg/kg, 0.50 hr, individual Rat 598, 599, 600, 10 mg/kg): 91.0 ng/mL and 99.8 ng/mL and 144 ng/mL | Plasma concentration ([3]; IV 10 mg/kg, 0.50 hr, mean): 112 ng/mL | Plasma concentration ([3]; IV 10 mg/kg, 1.0 hr, individual Rat 598, 599, 600, 10 mg/kg): 27.0 ng/mL and 9.43 ng/mL and 29.5 ng/mL | Plasma concentration ([3]; IV 10 mg/kg, 1.0 hr, mean): 22.0 ng/mL | Plasma concentration ([3]; IV 10 mg/kg, 2.0 hr, individual Rat 598, 599, 600, 10 mg/kg): 10.3 ng/mL and 9.06 ng/mL and 19.9 ng/mL | Plasma concentration ([3]; IV 10 mg/kg, 2.0 hr, mean): 13.1 ng/mL | Plasma concentration ([3]; IV 10 mg/kg, 4.0 hr, individual Rat 598, 599, 600, 10 mg/kg): 4.79 ng/mL and 6.25 ng/mL and 6.15 ng/mL | Plasma concentration ([3]; IV 10 mg/kg, 4.0 hr, mean): 5.73 ng/mL | tmax ([3]; IV 10 mg/kg, extrapolated to t = 0, individual Rat 598, 599, 600): 0 min | C0 [3, 4]: 20257 ng/mL | tmax [3, 4]: 0 min | MRTlast [3, 5]: 6.12 min and 5.69 min and 8.4 min | Vss [3, 5]: 0.561 L/kg and 1.65 L/kg and 0.735 L/kg | t1/2 [3, 5]: 75.6 min and 289 min and 78 min | AUClast ([3]; IV 10 mg/kg, mean): 2155 ng·h/mL | AUC∞ ([3]; IV 10 mg/kg, mean): 2176 ng·h/mL | CL ([3]; IV 10 mg/kg, mean): 76.8 ± 5.68 mL/min/kg | Dose-normalized AUC∞ ([3]; IV 10 mg/kg, mean): 218 kg·ng·h/mL/mg | MRTlast ([3]; IV 10 mg/kg, mean): 6.78 min | Vss ([3]; IV 10 mg/kg, mean): 0.982 ± 0.584 L/kg | t1/2 ([3]; IV 10 mg/kg, mean): 148 ± 122 min | Dose-normalized AUClast ([3]; IV 10 mg/kg, mean, 10 mg/kg): 215 kg·ng·h/mL/mg | Bioavailability ([3]; individual Rat 601, 602, 603): 0.726% and 0.191% and 1.64% | Bioavailability ([3]; mean): 0.854±0.735% | Plasma concentration ([3]; Oral 50 mg/kg, 0.50 hr, individual Rat 601, 602, 603, 50 mg/kg): 75.4 ng/mL and 27.8 ng/mL and 186 ng/mL | Plasma concentration ([3]; Oral 50 mg/kg, 0.50 hr, mean): 96.4 ng/mL | Plasma concentration ([3]; Oral 50 mg/kg, 1.0 hr, individual Rat 601, 602, 603, 50 mg/kg): 3.78 ng/mL and 3.00 ng/mL and 5.66 ng/mL | Plasma concentration ([3]; Oral 50 mg/kg, 1.0 hr, mean): 4.15 ng/mL | Plasma concentration ([3]; Oral 50 mg/kg, 2.0 hr, mean): 1.77 ng/mL | tmax ([3]; Oral 50 mg/kg, individual Rat 601, 602, 603): 15 min | Cmax [3, 6]: 186 ng/mL and 37.5 ng/mL and 408 ng/mL | MRTlast [3, 6]: 22.9 min and 24.2 min and 22.7 min | AUClast ([3]; Oral 50 mg/kg, mean): 92.0 ng·h/mL | Cmax ([3]; Oral 50 mg/kg, mean): 211 ± 186 ng/mL | MRTlast ([3]; Oral 50 mg/kg, mean): 23.3 min | tmax ([3]; Oral 50 mg/kg, mean): 15 min | Time post dosing at which maximum plasma concentrations were observed ([3]; PO 50 mg/kg): 15 min
Structure (SMILES): O=[13C](O)[13CH2][13CH2][13C](=O)O [^13C4-succinate]
Plasma concentration ([3]; IV 10 mg/kg, 8.0 hr, individual Rat 598, 599, 600): BLOQ (BLOQ: below the limit of quantitation (1 ng/mL)) | C0 ([3]; IV 10 mg/kg, extrapolated to t = 0, individual Rat 598, 599, 600, 10 mg/kg): 21947 ng/mL and 21392 ng/mL and 17434 ng/mL | AUClast [3, 5]: 2215 ng·h/mL and 1958 ng·h/mL and 2291 ng·h/mL | AUC∞ [3, 5]: 2223 ng·h/mL and 2902 ng·h/mL and 2303 ng·h/mL | CL [3, 5]: 75 mL/min/kg and 83.3 mL/min/kg and 72.3 mL/min/kg | Dose-normalized AUClast [3, 5]: 221 kg·ng·h/mL/mg and 196 kg·ng·h/mL/mg and 229 kg·ng·h/mL/mg | Dose-normalized AUC∞ [3, 5]: 222 kg·ng·h/mL/mg and 290 kg·ng·h/mL/mg and 230 kg·ng·h/mL/mg | Dose-normalized AUClast ([3]; IV 10 mg/kg, mean, listed as 13C4-Succinate, 10 mg/kg): ^2Bioavailability determined by dividing the individual oral dose-normalized AUClast values by the average IV dose normalized AUClast value 215 hr*kg*ng/mL/mg from previous study. hr · kg · ng/mL/mg | Plasma concentration ([3]; Oral 50 mg/kg, 2.0 hr, individual Rat 601, 602, 603, 50 mg/kg): 1.29 ng/mL and BLOQ (BLOQ: below the limit of quantitation (1 ng/mL)) and 2.25 ng/mL | Plasma concentration ([3]; Oral 50 mg/kg, 4.0 hr, individual Rat 601, 602, 603): BLOQ (BLOQ: below the limit of quantitation (1 ng/mL)) | Plasma concentration ([3]; Oral 50 mg/kg, 8.0 hr, individual Rat 601, 602, 603): BLOQ (BLOQ: below the limit of quantitation (1 ng/mL)) | AUClast [3, 6]: 78.3 ng·h/mL and 20.6 ng·h/mL and 177 ng·h/mL | Dose-normalized AUClast [3, 6]: 1.57 kg·ng·h/mL/mg and 0.411 kg·ng·h/mL/mg and 3.54 kg·ng·h/mL/mg | Dose-normalized AUClast ([3]; Oral 50 mg/kg, mean, 50 mg/kg): 1.84 ± 1.58 kg·ng·h/mL/mg and 1.84 kg·ng·h/mL/mg | Adverse reactions ([3]; intravenous (10 mg/kg) and oral (50 mg/kg) dosing): No adverse reactions were observed
